Earlier results on one compound are cited in US20120071554A1, “DEUTERATED 2-PROPYLPENTANOIC ACID COMPOUNDS” (priority 2008, published 2012).

For `CCCC(CCC)C(=O)O` [Valproate, sodium hydrogen bis(2-propylpentanoate)], under “adult patients on monotherapy”, the “administered dose excreted in the urine as the glucuronide conjugate” value was 30-50%, the “dose excreted as products of other oxidative mechanisms” value is listed as 15-20% and the “dose excreted as the products of mitochondrial beta-oxidation” value was “over 40%”. For the same compound, the “dose excreted unchanged in the urine” value (in vivo) is reported as “Less than 3%”. For the same compound, the “increase of the valproate free-fraction” value (pediatric patients co-dosed with valproate and aspirin, inhibition of beta-oxidation pathway) is given as 4 fold.
